Among the data in patent publication US8507214B2, “Elisa kit for detecting lincomycin” (Beijing Kwinbon Biotechnology Co., Ltd., priority 2008, dated 2013) are Cross reaction values, retold here.

In experiment [1] the test system is lincomycin monoclonal antibody prepared from hapten LIN-S1. Description: Cross reaction (specificity) of the monoclonal antibody prepared from hapten LIN-S1. The class given is binding, mouse. To be noted: antibody from hapten scheme LIN-S1; lincomycin = 100%. The procedure:
(§1) When the mouse serum titer is determined as high, the spleen cells are collected and fused with SP2/0 myeloma cells at an amount ratio of 7:1. The cell supernatant is detected by indirect competitive ELISA for screening the positive wells. The cells in the positive wells are cloned via limiting dilution method until a hybridoma cell secreting monoclonal antibody is obtained. The 50% inhibitory concentration and specificity of the monoclonal antibodies prepared from the two hapten schemes above are detected.

For experiment [2], the system named is monoclonal antibody prepared from hapten LIN-S2. The experiment is described as follows: Cross reaction (specificity) of the monoclonal antibody prepared from hapten LIN-S2. The class given is binding, mouse. The settings on record: antibody from hapten scheme LIN-S2; lincomycin = 100%. The procedure:
as §1

Turning to `CC[C@H]1OC(=O)[C@H](C)[C@@H](O[C@H]2C[C@@](C)(OC)[C@@H](O)[C@H](C)O2)[C@H](C)[C@@H](O[C@@H]2O[C@H](C)C[C@H](N(C)C)[C@H]2O)[C@](C)(O)C[C@@H](C)C(=O)[C@H](C)[C@@H](O)[C@]1(C)O` [Erythromycin], the Cross reaction in experiment [1] and in experiment [2] was below 1% throughout.
In the case of `CCC[C@@H]1C[C@@H](C(=O)N[C@@H]([C@H]2O[C@H](SC)[C@H](O)[C@@H](O)[C@H]2O)[C@@H](C)O)N(C)C1` [Lincomycin], the Cross reaction in experiment [1] and in experiment [2] was 100% throughout.
As to `[H]/N=C(/N)N[C@H]1[C@H](O)[C@@H](O)[C@H](O[C@@H]2O[C@@H](C)[C@](O)(C=O)[C@H]2O[C@@H]2O[C@@H](CO)[C@H](O)[C@@H](O)[C@@H]2NC)[C@@H](N/C(N)=N\[H])[C@@H]1O` [Streptomycin], the Cross reaction in experiment [1] was below 1%; in experiment [2], 9.2%.
For `CC[C@H]1OC(=O)C[C@@H](O)[C@H](C)[C@@H](O[C@@H]2O[C@H](C)[C@@H](O[C@H]3C[C@@](C)(O)[C@@H](O)[C@H](C)O3)[C@H](N(C)C)[C@H]2O)[C@@H](CC=O)C[C@@H](C)C(=O)/C=C/C(C)=C/[C@@H]1CO[C@@H]1O[C@H](C)[C@@H](O)[C@@H](OC)[C@H]1OC` [Tylosin], the Cross reaction in experiment [1] and in experiment [2] was below 1% in each case.
